Patent US5928666A, “Crystalline form of estradiol and pharmaceutical formulations comprising same” (Cygnus Inc., priority 1997, dated 1999)

Legend:
[1] = Flux of estradiol from equilibrated acrylate adhesive matrices through a 10 mil Silastic membrane (Example 7, Table 2); format: in vitro ADME; details: for Flux: 20 wt % acrylate matrix, 10 mil Silastic membrane, 32° C.; for average flux: average from Table 2 data
Protocol: Consequently, Crystal X provides an advantage in the preparation of pharmaceutical formulations comprising Crystal X especially transdermal drug delivery matrices. When Crystal X crystals are prepared in transdernal drug delivery formulations,the inherent increase in activity due to the higher thermodynamic activity of the Crystal X crystal versus E2-HH provides for increased flux. For example, equilibrated matrices containing Crystal X and E2-HH crystals were prepared in substantial accordance with the teaching of Example 7 herein and assayed for permeation through a Silastic membrane.
Measurement of estradiol flux was determined by drug flux through a 10 mil Silastic membrane in a modified Franz diffusion cells in substantial accordance with the following procedure. The adhesive matrix systems were peeled off the polyester release liner and placed on top of the Silastic membrane. Gentle pressure was applied to insure full contact between the drug adhesive layer and membrane. The membrane with the prototype system was then mounted carefully between the donor and the receiver compartments. The receiver compartment was filled nanopure water and the temperature was maintained at 32° C.±1° C. throughout the experimental period. Samples of receiver content was withdrawn and replaced with fresh buffer. Samples were assayed by HPLC.
Membrane flux (mg/cm^2 /hr) was determined by evaluating the cumulative flux of drug through a Silastic membrane over a given period of time and dividing by the time period. After steady state had been established, the flux values corresponding to steady state were averaged to obtain the flux value.
20 wt % acrylate adhesive matrices were prepared in accordance with Example 1. 20 % Crystal X was prepared in accordance with Example 3. The laminates were allowed to equilibrate for a period of 8 weeks to insure complete crystal structureation. Flux was determined as permeation through a 10 mil Silastic membrane as described above. The cumulative release of estradiol into the receiver was determined by HPLC method described above. The average flux over the period was calculated as the cumulative amount of drug in receiver divided by cumulative time.

[2] = cited from earlier work

Flux ([1]; 2.5 hrs) [μg/cm^2 /hr] | Flux ([1]; 8.375 hrs) [μg/cm^2 /hr] | Flux ([1]; 17.625 hrs) [μg/cm^2 /hr] | Flux ([1]; 27.75 hrs) [μg/cm^2 /hr] | average flux [1] [μg/cm^2 /hr] | flux value at the end of the flux profile relative to E2-HH ([1]; higher than for E2-HH, 32° C. wet) | Structure (SMILES) | thermodynamic activity ([1]; versus E2-HH) | blood level in hormone replacement therapy ([2]; level the normal dosage is to produce, hormone replacement therapy) | blood level for treatment of osteoporosis ([2]; level utilized, osteoporosis)
0.132 | 0.238 | 0.216 | 0.220 | 0.22 | about 2 times | C[C@]12CC[C@@H]3c4ccc(O)cc4CC[C@H]3[C@@H]1CC[C@@H]2O [Crystal X, estra-1, 3, 5(10)-triene-3, 17β-diol] | increased thermodynamic activity with respect to E2-HH |  | 
0.080 | 0.139 | 0.142 | 0.146 | 0.14 |  | C[C@]12CC[C@@H]3c4ccc(O)cc4CC[C@H]3[C@@H]1CC[C@@H]2O [E2-HH] |  |  | 
 |  |  |  |  |  | C[C@]12CC[C@@H]3c4ccc(O)cc4CC[C@H]3[C@@H]1CC[C@@H]2O [estradiol, estra-1, 3, 5(10)-triene-3, 17β-diol] |  | about 30 ng/L | approximately 40 ng/L
